In patent US20040265368A1, “Combination compositions of camptothecins and fluoropyrimidines” (priority 2003, published 2004):

What was measured:
[1] = system: human Capan-1 pancreatic tumor cells; test: Capan-1 pancreatic xenograft antitumor activity; type: in vivo, SCID-Rag2M mice; conditions: i.v., Q7D × 3, tumors to reach 500 mg
Description: (§1) Briefly, in order to perform tumor studies on mice, animals are inoculated with tumor cells which are then allowed to grow to sufficient size. Using a 28 g needle, mice are inoculated subcutaneously with 1-2×10^6 tumor cells on day 0 (one inoculum/mouse) in a volume of 50 μL.
(§2) When tumors reach a defined size of approximately 100 mm^3 to 200 mm^3, either one-day prior to treatment or on the day of treatment, all tumors are measured. After selecting the appropriate tumor sizes, excluding tumors too small or large, the tumors are randomly distributed (n=6) and the mean tumor volume of the groups are determined. Mice are organized into appropriate treatment groups consisting of control and treatment groups such as for example, saline control, liposome control, positive control and various dilutions of test articles.
(§3) Mice are injected intravenously with the required volume of sample to administer the prescribed dose (10 μL/g as indicated) to the animals based on individual mouse weights.
(§4) Tumor growth measurements are monitored using vernier calipers beginning on the day of treatment. Tumor length measurements (mm) are made from the longest axis and width measurements (mm) will be perpendicular to this axis. From the length and width measurements tumor volumes (cm^3) are calculated according to the equation (L×W^2/2. Animal weights and in-life observations are collected at the time of tumor measurement.
(§5) In particular, signs of ill health are based on body weight loss, change in appetite, rough coat, lack of grooming, behavioral changes such as altered gait, lethargy and gross manifestations of stress. Should signs of severe toxicity or tumor-related illness be seen, the animals are euthanized (CO2 asphyxiation) and a necropsy is performed to assess other signs of toxicity. Moribund animals are terminated for humane reasons and the decision to terminate is at the discretion of the Study Director/Manager and the Animal Care Technician. Any and all of these findings will be recorded as raw data and the time of death will be logged as the following day.
(§6) Xenograft tumors were allowed to grow until they measured to be approximately 150 mg (150 mm^3) in size, and the murine tumors were grown to approximately 100 mg (100 mm^3), at which time the indicated formulations were injected. Tumor growth was determined by direct caliper measurements. […] Antitumor activity was quantitated by calculating the percent tumor growth delay and log cell kill. Percent tumor growth delay is defined as the time in days taken for treated tumors to reach the specified evaluation size as a percent of control (T−C/C×100) where T is the treatment tumors and C is the control tumors in days. […] A log cell kill of +6 indicates a 99.9999% reduction in the cell population.

[2] = system: human HT-29 colon adenocarcinoma; test: HT-29 colorectal xenograft antitumor activity; conditions: i.v., Q7D × 3, tumors to reach 400 mg
Description: as §1, §2, §3, §4, §5, §6

| Structure (SMILES) | Log cell kill ([1]; dose 100 mg/kg) | Percent tumor growth delay [(T − C ÷ C) × 100] ([1]; dose 100 mg/kg) [%] | Tumor growth delay ([1]; dose 100 mg/kg) [days] | Log cell kill ([2]; dose 100 mg/kg) | Percent tumor growth delay [(T − C ÷ C) × 100] ([2]; dose 100 mg/kg) [%] | Tumor growth delay ([2]; dose 100 mg/kg) [days] | Percent tumor growth delay [(T − C ÷ C) × 100] ([2]; dose 100 mg/kg, listed as free CPT-11, 100 mg/kg) [%] | Log cell kill ([1]; dose 250 mg/kg) | Percent tumor growth delay [(T − C ÷ C) × 100] ([1]; dose 250 mg/kg) [%] | Tumor growth delay ([1]; dose 250 mg/kg) [days] | Log cell kill ([2]; dose 250 mg/kg) | Percent tumor growth delay [(T − C ÷ C) × 100] ([2]; dose 250 mg/kg) [%] | Tumor growth delay ([2]; dose 250 mg/kg) [days] | Percent tumor growth delay [(T − C ÷ C) × 100] ([2]; dose 250 mg/kg, listed as free FUDR) [%] |
| --- | --- | --- | --- | --- | --- | --- | --- | --- | --- | --- | --- | --- | --- | --- |
| CCc1c2c(nc3ccc(OC(=O)N4CCC(N5CCCCC5)CC4)cc13)-c1cc3c(c(=O)n1C2)COC(=O)[C@]3(O)CC [Free Irino, irinotecan] | 0.65 | 35 | 15 | 0.09 | 8 | 2 | 8 | – | – | – | – | – | – | – |
| O=c1[nH]c(=O)n([C@H]2C[C@H](O)[C@@H](CO)O2)cc1F [Free Flox, fluorodeoxyuridine] | – | – | – | – | – | – | – | 0.43 | 23 | 10 | 0.09 | 8 | 2 | 8 |
